Results on twelve compounds are retold here after patent publication US8992674B2, “Ink, ink cartridge and ink jet recording method” (Canon Kabushiki Kaisha, priority 2012, dated 2015).

The series can be described thus: Measurement of Δλmax (UV-Vis absorption spectra in 20.0% 1,2-hexanediol aqueous solution and in water). To be noted: for λmaxD: maximum absorption wavelength in 20.0% by mass aqueous solution of 1,2-hexanediol; for λmaxD / λmaxW: coloring material 0.002 to 0.005%; for λmaxW: maximum absorption wavelength in ion-exchange water; for Δλmax: λmaxD−λmaxW. It is filed as physicochemical. An excerpt:
Specifically, the ink according to the present invention contains a first coloring material and a second coloring material satisfying the following conditions. […] Further, the sum of the Δλmax1 and the Δλmax2 needs to be 35.0 or less. λmax refers to a maximum absorption wavelength in the visible region (380 to 750 nm) in a UV-Vis absorption spectrum of a coloring material, and can be measured using a spectrophotometer.
In a coloring material in which an associating state and a non-associating state are concurrently present, the absorption spectrum has a plurality of maximal-absorption wavelengths in some cases. Then, respective peak shapes (heights) at the maximal-absorption wavelengths representing the associating state and the non-associating state vary depending on a liquid medium to be used in some cases. The maximum absorption wavelength in the present invention means the following. That is, even in the case where a maximum absorption wavelength in an absorption spectrum in 20.0% by mass aqueous solution of 1,2-hexanediol shifts based on an absorption spectrum in water, a peak originated from a maximum absorption wavelength in water is taken as the maximum absorption wavelength. […] In the present invention, since it is important to consider the shift of a wavelength giving a highest absorbance, a maximum absorption wavelength in 20.0% by mass aqueous solution of 1,2-hexanediol is considered to be a maximal-absorption wavelength on a larger wavelength side, which is a peak originated from a maximum absorption wavelength in water.
For each coloring material, the difference Δλmax (=λmaxD−λmaxW) between a maximum absorption wavelength (λmaxD) in a 20.0% by mass aqueous solution of 1,2-hexanediol and a maximum absorption wavelength (λmaxW) in water in UV-Vis absorption spectra was measured. λmaxD and λmaxW were measured by diluting each coloring material by using a 20.0% by mass aqueous solution of 1,2-hexanediol or ion-exchange water so that the content of the coloring material became 0.002 to 0.005%. The measurement condition is shown below. Then, the value Δλmax=λmaxD−λmaxW was determined from the measurement. Here, the unit of λmax is “nm.”
Spectrophotometer: a self-recording spectrophotometer (trade name “U-3300,” made by Hitachi, Ltd.)
Measurement cell: 1-cm quartz cell
Sampling interval: 0.1 nm
Scanning speed: 30 nm/min

In the case of `Cn1c(=O)c(C(=O)c2cccc(S(=O)(=O)O)c2)c2c3c(c(Nc4cc(Nc5nc(NCCNc6nc(Nc7cc(Nc8ccc9c%10c8C(=O)c8ccccc8-c%10c(C(=O)c8cccc(S(=O)(=O)O)c8)c(=O)n9C)c(S(=O)(=O)O)cc7S(=O)(=O)O)nc(Oc7ccc(S(=O)(=O)O)cc7)n6)nc(Oc6ccc(S(=O)(=O)O)cc6)n5)c(S(=O)(=O)O)cc4S(=O)(=O)O)ccc31)C(=O)c1ccccc1-2` [magenta coloring material 2], the λmaxD turned out to be 512.0 nm, the λmaxW stood at 508.5 nm and the Δλmax is 3.5 nm.

Turning to `Cc1c(C#N)c(Nc2ccc(S(=O)(=O)O)cc2)nc(Nc2ccc(S(=O)(=O)O)cc2)c1N=Nc1sc(N=Nc2ccccc2C#N)c(-c2ccc(Nc3nc(NCCS(=O)(=O)O)nc(Nc4cc(S(=O)(=O)O)ccc4S(=O)(=O)O)n3)cc2)c1C#N` [black coloring material 1], the λmaxD is reported as 630.5 nm, the λmaxW is 605.5 nm and the Δλmax was 25.0 nm.

As to `Nc1cc2c(O)c(N=Nc3ccc(N=Nc4ccc(S(=O)(=O)[O-])cc4)c4ccc(S(=O)(=O)[O-])cc34)c(S(=O)(=O)[O-])cc2cc1S(=O)(=O)[O-].[Na+].[Na+].[Na+].[Na+]` [C.I. Food Black 2], the λmaxD is on record as 595.0 nm, the λmaxW is 585.5 nm and the Δλmax was 9.5 nm.

In the case of `COc1cc(N=Nc2cccc(S(=O)(=O)O)c2)ccc1Nc1nc(NCCS(=O)(=O)O)nc(Nc2ccc(N=Nc3cccc(S(=O)(=O)O)c3)cc2OCCCS(=O)(=O)O)n1` [yellow coloring material 4], the λmaxD is recorded as 382.0 nm, the λmaxW is 391.5 nm and the Δλmax is reported as −9.5 nm.

`CCc1cc(C)c(S(=O)(=O)O)c(CC)c1Nc1nc(N(c2nc3ccc(S(=O)(=O)O)cc3s2)c2c(CC)cc(C)c(S(=O)(=O)O)c2CC)cc(C)c1N=Nc1c(C#N)c(C(C)(C)C)nn1-c1nc2ccc(S(=O)(=O)O)cc2s1` [magenta coloring material 1] came in with a λmaxD of 559.5 nm, a λmaxW of 555.0 nm and a Δλmax of 4.5 nm.

In turn, `CC(C)(C)c1nn(-c2cc(C(=O)O)cc(C(=O)O)c2)c(N)c1N=Nc1nnc(SCCSc2nnc(N=Nc3c(C(C)(C)C)nn(-c4cc(C(=O)O)cc(C(=O)O)c4)c3N)s2)s1` [yellow coloring material 1] showed a λmaxD of 451.5 nm, a λmaxW of 427.5 nm and a Δλmax of 24.0 nm.

In the case of `COc1cc(N=Nc2cccc(S(=O)(=O)O)c2)ccc1NC(=O)Nc1ccc(N=Nc2cccc(S(=O)(=O)O)c2)cc1OC` [C.I. Direct Yellow 132], the λmaxD is reported as 411.0 nm, the λmaxW is listed as 405.5 nm and the Δλmax came out at 5.5 nm.

Consider `O=C(O)c1nn(-c2ccc(S(=O)(=O)O)cc2)c(O)c1N=Nc1ccc(S(=O)(=O)O)cc1` [C.I. Acid Yellow 23], for which the λmaxD is on record as 430.5 nm, the λmaxW is 427.0 nm and the Δλmax is on record as 3.5 nm.

As to `Cc1c(C#N)c(Nc2ccc(S(=O)(=O)O)cc2)nc(Nc2ccc(S(=O)(=O)O)cc2)c1N=Nc1nc(-c2ccc3ccccc3c2)c(N=Nc2cc(S(=O)(=O)O)c3cc(S(=O)(=O)O)cc(S(=O)(=O)O)c3c2)s1` [black coloring material 4], the λmaxD came to 604.0 nm, the λmaxW is given as 604.0 nm and the Δλmax is reported as 0.0 nm.

For C.I. Direct Yellow 86, the λmaxD is listed as 399.0 nm, the λmaxW came out at 380.0 nm and the Δλmax stood at 19.0 nm.

Regarding `Cc1cc(Nc2nc(NCCS(=O)(=O)O)nc(Nc3ccc(N=Nc4ccc(N=Nc5ccc(S(=O)(=O)O)cc5)cc4S(=O)(=O)O)c(C)c3)n2)ccc1N=Nc1ccc(N=Nc2ccc(S(=O)(=O)O)cc2)cc1S(=O)(=O)O` [yellow coloring material 3], the λmaxD is 408.0 nm, the λmaxW worked out at 417.0 nm and the Δλmax is on record as −9.0 nm.

Compound `Cc1ccc(S(=O)(=O)Nc2cc(S(=O)(=O)[O-])cc3cc(S(=O)(=O)[O-])c(N=Nc4cc(Cl)ccc4Oc4ccccc4)c(O)c23)cc1.[Na+].[Na+]` [C.I. Acid Red 249] yielded a λmaxD of 520.0 nm, a λmaxW of 524.0 nm and a Δλmax of −4.0 nm.
